Tests used:
MIA PaCa-2 and KLM cells = assay: RNA-seq gene expression analysis (FIG. 9A); format: cell-based
Procedure: Plots show a significant increase in the overall gene expression in the cells treated with the combination. Cells treated for a total of 18 h (i.e., 6-hour romidepsin followed by 12-hour incubation with 2 nM DMPatA (combo) or without (Romi alone)).
To gain further insight into the effects of the combination treatment gene expression was profiled in MIA PaCa-2 and KLM cells treated with vehicle, the single agents, or the combination for a total of 18 h (i.e., 6-hour romidepsin treatment followed by 12-hour washout with 2 nM DMPatA or without), probing whether alterations observed following combination treatment could be explained by changes in gene expression.
Total RNA was extracted using RNeasy mini kit (Qiagen) from cells collected after 18 hours (6 hours romidepsin (15 nM)+12 hours washout with or without DMPatA (2 nM)) incubation with or without drugs. RNA quantitation and quality were assessed by the Agilent Bioanalyzer 2100 at the Molecular Pathology Shared Resource of the Herbert Irving Comprehensive Cancer Center at Columbia University (mBank). RNA library preparation and sequencing was performed at Columbia University's Sulzberger Genome Center. Briefly, poly-A pull-down was used to enrich mRNAs from total RNA samples, followed by library construction using Illumina TruSeq chemistry. Libraries were then sequenced using Illumina NovaSeq 6000. For the DESeq2 (v 1.40.2) analysis the data were imported with tximport in DESeq2 and a dds object was generated. Variance stabilizing transformation was used on the object and the output was used for the heatmap and PCA plots. Abundance of transcripts was estimated by pseudoalignment using kallisto, and downstream analysis was performed using R (v4.3.1) and the indicated packages. […] Differentially expressed genes were determined using linear regression method (limma v3.56.2), and genes with |log 2FC|≥1 and adjusted p-value <0.05 were plotted accordingly on volcano plots and heatmap (ggplot2 v3.5.0 and ComplexHeatmap v2.16.0). […]

H3K9ac = assay: Immunohistochemistry of H3K9ac in MIA PaCa-2 xenograft tumor tissue (FIG. 2C); format: in vivo, athymic nude mice; details: IHC, tumors at end of study
Text: FIGS. 2A and 2B illustrate the results of a MIA PaCa-2 xenograft model of PDAC in male athymic nude mice. FIG. 2A compares tumor growth (mm^3) in mice treated with the indicated concentrations of combination, romidepsin and DMPatA using IP route and vehicles described in the materials and methods section below. FIG. 2B compares body weight (g) of mice treated with the combination and single agents following treatment. FIGS. 2C and 2D compare quantification of H3K9ac and c-MYC antibodies. Frozen sections from MIA PaCa-2 xenograft tumor tissues were subjected to immunohistochemical analysis using antibodies against H3K9ac, and c-MYC. Fluorescence images were captured using fluorescent microscopy and the fluorescent signal from H3K9ac and c-MYC antibodies were quantified. To quantify fluorescence intensity at least 500 cells per condition were measured for each antibody at 40× magnification. The median of the signal intensity is shown. Statistical significance was determined by one-way ANOVA using Tukey multiple comparisons test, ****p value<0.0001.
Additionally, snap-frozen tumor tissue samples from the mice treated with vehicle, single agents, and the combination were collected at the end of the study. These samples were sectioned, and the levels of H3K9ac and c-MYC proteins in tumor tissues were assessed by immunohistochemistry. […]

MIA PaCa-2 cells = assay: Glutamine consumption/rescue of mitochondrial function (ΔOCR) (FIG. 8C right); format: cell-based; details: cells starved of glucose, glutamine and pyruvate 1 h, then glutamine
Procedure: FIG. 8C left panel presents the results of metabolic flux analysis showing basal mitochondrial respiration (OXPHOS) (oxygen consumption rate, OCR) in MIA PaCa-2 cells following treatment with combinations or single drugs. Treatment was for a total of 18 h, as mentioned in FIG. 8A. Statistical significance was determined by one-way ANOVA, ***p value<0.001, *p value<0.01. FIG. 8C right panel presents the results of quantification of glutamine consumption. Cells were treated as mentioned in FIG. 8A. Prior to the metabolic measurements cells were starved of glucose, glutamine, and pyruvate for 1-hour after which glutamine was added and response was recorded as ΔOCR (i.e. OCR before and after glutamine addition). Statistical significance was determined by one-way ANOVA, ****p value<0.0001, ***p value<0.0005.
Because reprograming/augmentation of cellular metabolism by c-MYC is known to support oncogenesis, the Seahorse XF analyzer was used to assess the impact of the treatments on c-MYC-driven metabolism including ATP production, glycolysis, and mitochondrial oxidative phosphorylation (OXPHOS). Extracellular acidification rates, also known as proton efflux rate (PER), were measured for glycolysis and mitochondrial oxygen consumption rates (OCR) for OXPHOS. We utilized the 6 h exposure followed by 18 h washout strategy for romidepsin described earlier. […]

C/C=C1\NC(=O)[C@H]2CSSCC/C=C/[C@H](CC(=O)N[C@H](C(C)C)C(=O)N2)OC(=O)[C@H](C(C)C)NC1=O [romidepsin]
change in gene expression (MIA PaCa-2 and KLM cells; romidepsin 15 nM 6 h, with or without DMPatA 2 nM): only a modest increase in gene expression
number of differentially expressed genes (DEGs) (MIA PaCa-2 and KLM cells; total 18 h (6 h romidepsin 15 nM + 12 h with/without DMPatA 2 nM), |log2FC|≥1, adjusted p<0.05): 1551 DEGs
H3K9ac level in tumor (H3K9ac): increased significantly
glutamine rescue of mitochondrial function (ΔOCR) (MIA PaCa-2 cells): impaired glutamine rescue of mitochondrial function
